Test results published in ChEMBL document CHEMBL4373717, “Coumarin-containing hybrids and their anticancer activities” (Eur J Med Chem, 2019).
≈ marks a conversion by molar mass, not a printed value. Values belong to the compound of their own block, whether it stands above or below them.

Experiments:
Assay type in all cases: functional, cell-based
MCF7 [1] = test: Cytotoxicity against human MCF7 cells assessed as reduction in cell viability after 68 hrs by MTT assay; conditions: MCF7, 68 h
HeLa [2] = test: Cytotoxicity against human HeLa cells assessed as reduction in cell viability after 68 hrs by MTT assay
A549 [3] = test: Cytotoxicity against human A549 cells assessed as reduction in cell viability after 68 hrs by MTT assay; conditions: A549, 68 h
K562 [4] = test: Cytotoxicity against human K562 cells assessed as reduction in cell viability after 68 hrs by MTT assay; conditions: K562, 68 h
MCF7 [5] = test: Cytotoxicity against human MCF7 cells assessed as reduction in cell viability after 48 hrs by MTT assay; conditions: MCF7, 48 h
MDA-MB-231 [6] = test: Cytotoxicity against human MDA-MB-231 cells assessed as reduction in cell viability after 24 hrs by MTT assay
A549 [7] = test: Cytotoxicity against human A549 cells assessed as reduction in cell viability after 24 hrs by MTT assay; conditions: A549, 24 h
HeLa [8] = test: Anticancer activity against human HeLa cells by MTT assay
A549 [9] = test: Anticancer activity against human A549 cells by MTT assay
MDA-MB-231 [10] = test: Anticancer activity against human MDA-MB-231 cells by MTT assay
K562 [11] = test: Anticancer activity against human K562 cells by MTT assay
769-P = test: Anticancer activity against human 769-P cells by MTT assay
HepG2 = test: Anticancer activity against human HepG2 cells by MTT assay

SMILES: CCOc1cc(Br)cc2c1OCC([N+](=O)[O-])=C2
IC50 (MCF7 [1]): 0.95 to 6.43 µM | IC50 (HeLa [2]): 0.95 to 6.43 µM | IC50 (A549 [3]): 0.95 to 6.43 µM | IC50 (K562 [4]): 0.95 to 6.43 µM

SMILES: O=Cc1c(-c2cc3cc(Br)ccc3oc2=O)[nH]c2ccccc12
IC50 (MCF7 [5]): 5.5 to 100 µM

SMILES: COc1ccccc1-c1cc(-c2cc3ccccc3oc2=O)nc(Cc2ccc(F)cc2)n1
IC50 (MDA-MB-231 [6]; Homo sapiens, MDA-MB-231, 24 h): 2.15 to 28.6 µM | IC50 (A549 [7]): 2.15 to 28.6 µM

SMILES: COc1ccccc1NC(=O)Nc1ccc(Cc2c(C)c3cc(C(C)(C)C)c(O)cc3oc2=O)cn1
IC50 (MCF7 [1]): 1.66 to 19.4 µM | IC50 (HeLa [2]): 1.66 to 19.4 µM | IC50 (A549 [3]): 1.66 to 19.4 µM | IC50 (K562 [4]): 1.66 to 19.4 µM

IC50 (HeLa [8]): 0.16 to 1.12 µg/mL (≈ 0.303 to 2.12 µM) | IC50 (A549 [9]): 0.16 to 1.12 µg/mL (≈ 0.303 to 2.12 µM) | IC50 (MDA-MB-231 [10]): 0.16 to 1.12 µg/mL | IC50 (K562 [11]): 0.16 to 1.12 µg/mL (≈ 0.303 to 2.12 µM)
SMILES: Cc1nn(-c2ccccc2)c(=O)n1-n1c(-c2cc3ccccc3oc2=O)cs/c1=N\c1ccc(Cl)cc1

IC50 (HepG2): 0.383 to 13.6 µM | IC50 (MDA-MB-231 [10]): 0.383 to 13.6 µM
SMILES: O=c1ccc2ccc(OCCCn3cc(COc4ccc5ccc(=O)oc5c4)nn3)cc2o1
IC50 (769-P): 0.383 to 13.6 µM

SMILES: O=c1oc2ccccc2cc1-c1cc(-c2cccc(Cl)c2)nc(Cc2ccc(F)cc2)n1
IC50 (MDA-MB-231 [6]; Homo sapiens, MDA-MB-231, 24 h): 2.15 to 28.6 µM | IC50 (A549 [7]): 2.15 to 28.6 µM

IC50 (HepG2): 0.383 to 13.6 µM | IC50 (MDA-MB-231 [10]): 0.383 to 13.6 µM
SMILES: Cc1cc(=O)oc2cc(OCc3cn(CCCCCCCCCOc4ccc5ccc(=O)oc5c4)nn3)ccc12
IC50 (769-P): 0.383 to 13.6 µM

SMILES: O=c1oc2ccccc2cc1-c1cc(-c2ccccc2Br)nc(Cc2ccc(F)cc2)n1
IC50 (MDA-MB-231 [6]; Homo sapiens, MDA-MB-231, 24 h): 2.15 to 28.6 µM | IC50 (A549 [7]): 2.15 to 28.6 µM

SMILES: O=c1oc2ccccc2cc1-c1cc(-c2ccccc2Cl)nc(Cc2ccc(F)cc2)n1
IC50 (MDA-MB-231 [6]; Homo sapiens, MDA-MB-231, 24 h): 2.15 to 28.6 µM | IC50 (A549 [7]): 2.15 to 28.6 µM

IC50 (HepG2): 0.383 to 13.6 µM | IC50 (MDA-MB-231 [10]): 0.383 to 13.6 µM
SMILES: Cc1cc(=O)oc2cc(OCc3cn(CCCCCCCCCCOc4ccc5ccc(=O)oc5c4)nn3)ccc12
IC50 (769-P): 0.383 to 13.6 µM

SMILES: Cc1cc(-c2cc3cc(Br)ccc3oc2=O)n(-c2nc(-c3ccc(Cl)cc3)cs2)n1
IC50 (MCF7 [5]): 4.03 to 31.5 µM

IC50 (HepG2): 0.383 to 13.6 µM | IC50 (MDA-MB-231 [10]): 0.383 to 13.6 µM
SMILES: Cc1cc(=O)oc2cc(OCc3cn(CCCCOc4ccc5ccc(=O)oc5c4)nn3)ccc12
IC50 (769-P): 0.383 to 13.6 µM

IC50 (HepG2): 0.383 to 13.6 µM | IC50 (MDA-MB-231 [10]): 0.383 to 13.6 µM
SMILES: Cc1cc(=O)oc2cc(OCc3cn(CCCOc4ccc5ccc(=O)oc5c4)nn3)ccc12
IC50 (769-P): 0.383 to 13.6 µM

IC50 (HeLa [8]): 0.16 to 1.12 µg/mL (≈ 0.324 to 2.27 µM) | IC50 (A549 [9]): 0.16 to 1.12 µg/mL (≈ 0.324 to 2.27 µM) | IC50 (MDA-MB-231 [10]): 0.16 to 1.12 µg/mL | IC50 (K562 [11]): 0.16 to 1.12 µg/mL (≈ 0.324 to 2.27 µM)
SMILES: Cc1nn(-c2ccccc2)c(=O)n1-n1c(-c2cc3ccccc3oc2=O)cs/c1=N\c1ccccc1

SMILES: Cc1ccccc1-c1cc(-c2cc3ccccc3oc2=O)nc(Cc2ccc(F)cc2)n1
IC50 (MDA-MB-231 [6]; Homo sapiens, MDA-MB-231, 24 h): 2.15 to 28.6 µM | IC50 (A549 [7]): 2.15 to 28.6 µM

SMILES: Cc1c(Cc2ccc(NC(=O)Nc3ccc(F)c(Cl)c3)nc2)c(=O)oc2cc(O)c(C(C)(C)C)cc12
IC50 (MCF7 [1]): 1.66 to 19.4 µM | IC50 (HeLa [2]): 1.66 to 19.4 µM | IC50 (A549 [3]): 1.66 to 19.4 µM | IC50 (K562 [4]): 1.66 to 19.4 µM

SMILES: Cc1cccc(-c2cc(-c3cc4ccccc4oc3=O)nc(Cc3ccc(F)cc3)n2)c1
IC50 (MDA-MB-231 [6]; Homo sapiens, MDA-MB-231, 24 h): 2.15 to 28.6 µM | IC50 (A549 [7]): 2.15 to 28.6 µM

SMILES: COc1ccc(-c2cc(-c3cc4ccccc4oc3=O)nc(Cc3ccc(F)cc3)n2)cc1
IC50 (MDA-MB-231 [6]; Homo sapiens, MDA-MB-231, 24 h): 2.23 µM | IC50 (A549 [7]): 2.23 µM

SMILES: Cc1cccc(C)c1NC(=O)c1ccc(-n2cc(COc3cc(=O)oc4ccccc34)nn2)cc1
IC50 (MDA-MB-231 [6]; mda-mb-231): 0.03 to 91.6 µM

SMILES: COc1ccc(OC)c(NC(=O)c2ccc(-n3cc(COc4cc(=O)oc5ccccc45)nn3)cc2)c1
IC50 (MDA-MB-231 [6]; mda-mb-231): 0.03 to 91.6 µM

SMILES: Cc1ccc(-c2cc(-c3cc4ccccc4oc3=O)nc(Cc3ccc(F)cc3)n2)cc1
IC50 (MDA-MB-231 [6]; Homo sapiens, MDA-MB-231, 24 h): 2.15 to 28.6 µM | IC50 (A549 [7]): 2.15 to 28.6 µM

SMILES: O=C(Nc1ccccc1)c1ccc(-n2cc(COc3cc(=O)oc4ccccc34)nn2)cc1
IC50 (MDA-MB-231 [6]; mda-mb-231): 0.03 to 91.6 µM

IC50 (HeLa [8]): 0.16 to 1.12 µg/mL (≈ 0.306 to 2.14 µM) | IC50 (A549 [9]): 0.16 to 1.12 µg/mL (≈ 0.306 to 2.14 µM) | IC50 (MDA-MB-231 [10]): 0.16 to 1.12 µg/mL | IC50 (K562 [11]): 0.16 to 1.12 µg/mL (≈ 0.306 to 2.14 µM)
SMILES: COc1ccc(/N=c2\scc(-c3cc4ccccc4oc3=O)n2-n2c(C)nn(-c3ccccc3)c2=O)cc1

SMILES: O=c1oc2ccccc2cc1-c1cc(-c2cccc(Br)c2)nc(Cc2ccc(F)cc2)n1
IC50 (MDA-MB-231 [6]; Homo sapiens, MDA-MB-231, 24 h): 2.15 to 28.6 µM | IC50 (A549 [7]): 2.15 to 28.6 µM

SMILES: COC(=O)c1cccc(NC(=O)c2ccc(-n3cc(COc4cc(=O)oc5ccccc45)nn3)cc2)c1
IC50 (MDA-MB-231 [6]; mda-mb-231): 0.03 to 91.6 µM

SMILES: Cc1cc(-c2cc3cc(Br)ccc3oc2=O)n(-c2nc(-c3ccccc3)cs2)n1
IC50 (MCF7 [5]): 4.03 to 31.5 µM

IC50 (HeLa [8]): 0.16 to 1.12 µg/mL (≈ 0.289 to 2.02 µM) | IC50 (A549 [9]): 0.16 to 1.12 µg/mL (≈ 0.289 to 2.02 µM) | IC50 (MDA-MB-231 [10]): 0.16 to 1.12 µg/mL | IC50 (K562 [11]): 0.16 to 1.12 µg/mL (≈ 0.289 to 2.02 µM)
SMILES: COc1ccc(/N=c2\scc(-c3cc4ccccc4oc3=O)n2-n2c(C)nn(-c3ccc(OC)cc3)c2=O)cc1

IC50 (HepG2): 0.383 to 13.6 µM | IC50 (MDA-MB-231 [10]): 0.383 to 13.6 µM
SMILES: O=c1ccc2ccc(OCCCCCCn3cc(COc4ccc5ccc(=O)oc5c4)nn3)cc2o1
IC50 (769-P): 0.383 to 13.6 µM

SMILES: O=C(O)c1c(-c2cc3cc(Cl)ccc3oc2=O)[nH]c2ccccc12
IC50 (MCF7 [5]): 5.5 to 100 µM

SMILES: CCc1ccccc1NC(=O)c1ccc(-n2cc(COc3cc(=O)oc4ccccc34)nn2)cc1
IC50 (MDA-MB-231 [6]; mda-mb-231): 0.03 to 91.6 µM

IC50 (HepG2): 0.383 to 13.6 µM | IC50 (MDA-MB-231 [10]): 0.383 to 13.6 µM
SMILES: Cc1cc(=O)oc2cc(OCc3cn(CCCCCCOc4ccc5ccc(=O)oc5c4)nn3)ccc12
IC50 (769-P): 0.383 to 13.6 µM

SMILES: Cc1ccc(NC(=O)Nc2ccc(Cc3c(C)c4cc(C(C)(C)C)c(O)cc4oc3=O)cn2)cc1C
IC50 (MCF7 [1]): 1.66 to 19.4 µM | IC50 (HeLa [2]): 1.66 to 19.4 µM | IC50 (A549 [3]): 1.66 to 19.4 µM | IC50 (K562 [4]): 1.66 to 19.4 µM
